Source: patent US20230115298A1, “METHOD FOR CONTROLLING THE GROWTH OF UNDESIRABLE VEGETATION” (UPL Limited, priority 2021, published 2023)

Test system: weedy Glycine max
Experiment: Greenhouse trials, post-emergence herbicidal efficacy of L-glufosinate, other herbicides and their combinations (observed vs Colby expected)
Type: in vivo
Details: for Control %: Table 1
Protocol: Greenhouse trials were carried out to evaluate the efficacy of the combination of L-glufosinate and the other herbicides on weedy Glycine max. The soil used was sandy clay loam—Sand: 68.0%; Silt: 8.0%; Clay: 24.0%. All treatments were in 3 replications per treatment with a spray volume of […].
The expected efficacy of a combination of L-glufosinate and the other herbicides was calculated using the well-established Colby method. Any difference between the observed and “expected” efficacy could be attributed to synergy between the two compounds.
In the Colby method, the expected (or predicted) response of a combination of herbicides is calculated by taking the product of the observed response for each individual component of the combination when applied alone, divided by 100, and subtracting this value from the sum of the observed response for each component when applied alone. An unexpected enhancement in efficacy of the combination is then determined by comparing the observed response of the combination to the expected (or predicted) response as calculated from the observed response of each individual component alone. If the observed response of the combination is greater than the expected (or predicted) response, or stated conversely, if the difference between the observed and expected response is greater than zero, then the combination is said to be synergistic or unexpectedly effective (Colby, S. R., Weeds, 1967(15), p. 20-22). The Colby method requires only a single dose of each herbicide applied alone and the mixture of both doses. The formula used to calculate the expected efficacy (EE) which was compared with the observed efficacy (OE) to determine the efficacy of the present invention is explained hereinbelow:
The expected efficacy for a combination of two active ingredients is as follows:
The expected efficacy for a combination of three active ingredients is as follows:
[…] The target weed was weedy Glycine max, and the concentration of the herbicide and the results are recorded in the table 1 below:

[1] = 14 DAA, dose a.i. g/h: L-glufosinate 150, oxyfluorfen 107.1, imazethapyr 75, carfentrazone 7.5
[2] = 21 DAA, dose a.i. g/h: L-glufosinate 150, oxyfluorfen 107.1, imazethapyr 75, carfentrazone 7.5
[3] = 28 DAA, dose a.i. g/h: L-glufosinate 150, oxyfluorfen 107.1, imazethapyr 75, carfentrazone 7.5
[4] = 35 DAA, dose a.i. g/h: L-glufosinate 150, oxyfluorfen 107.1, imazethapyr 75, carfentrazone 7.5

## Cc1nn(-c2cc(CC(Cl)C(=O)O)c(Cl)cc2F)c(=O)n1C(F)F (stereo not shown) [Carfentrazone, carfentrazone]
[1]
  Control %: 50.3%
14 DAA, dose a.i. g/h: carfentrazone 9.0, L-glufosinate 150
  Control %: 51.7%
[2]
  Control %: 44.3%
21 DAA, dose a.i. g/h: carfentrazone 9.0, L-glufosinate 150
  Control %: 51.0%
[3]
  Control %: 44.3%
28 DAA, dose a.i. g/h: carfentrazone 9.0, L-glufosinate 150
  Control %: 51.0%
[4]
  Control %: 39.3%
35 DAA, dose a.i. g/h: carfentrazone 9.0, L-glufosinate 150
  Control %: 46.7%

## CCSC(C)CC1CC(=O)C(/C(CC)=N/OC/C=C/Cl)=C(O)C1 (stereo not shown) [Clethodim, clethodim]
Table 6, 3 DAA, g ai/h: L-glufosinate 150, clethodim 45
  % control: 0%
Table 6, 7 DAA, g ai/h: L-glufosinate 150, clethodim 45
  % control: 0%
Table 6, 14 DAA, g ai/h: L-glufosinate 150, clethodim 45
  % control: 0%
Table 6, 21 DAA, g ai/h: L-glufosinate 150, clethodim 45
  % control: 0%
Table 6, 28 DAA, g ai/h: L-glufosinate 150, clethodim 45
  % control: 0%
Table 6, 35 DAA, g ai/h: L-glufosinate 150, clethodim 45
  % control: 0%

## CCc1cnc(C2=NC(C)(C(C)C)C(=O)N2)c(C(=O)O)c1 (stereo not shown) [Imazethapyr, imazethapyr]
[1]
  Control %: 10%
[2]
  Control %: 20.0%
[3]
  Control %: 20.0%
[4]
  Control %: 15.0%

## CC(Oc1ccc(Oc2ncc(C(F)(F)F)cc2Cl)cc1)C(=O)O (stereo not shown) [Haloxyfop, haloxyfop]
Table 7, 3 DAA, g ai/h: L-glufosinate 150, haloxyfop 50
  % control: 5%
Table 7, 7 DAA, g ai/h: L-glufosinate 150, haloxyfop 50
  % control: 13.3%
Table 7, 14 DAA, g ai/h: L-glufosinate 150, haloxyfop 50
  % control: 15%
Table 7, 21 DAA, g ai/h: L-glufosinate 150, haloxyfop 50
  % control: 12.3%
Table 7, 28 DAA, g ai/h: L-glufosinate 150, haloxyfop 50
  % control: 12.3%
Table 7, 35 DAA, g ai/h: L-glufosinate 150, haloxyfop 50
  % control: 12.3%

## O=C(O)CNCP(=O)(O)O [Glyphosate, glyphosate]
Table 2, 3 DAA, g ai/h: L-glufosinate 150, glyphosate 379
  % control: 0%
Table 2, 7 DAA, g ai/h: L-glufosinate 150, glyphosate 379
  % control: 0%
Table 2, 14 DAA, g ai/h: L-glufosinate 150, glyphosate 379
  % control: 0%
Table 2, 21 DAA, g ai/h: L-glufosinate 150, glyphosate 379
  % control: 0%
Table 2, 28 DAA, g ai/h: L-glufosinate 150, glyphosate 379
  % control: 0%
Table 2, 35 DAA, g ai/h: L-glufosinate 150, glyphosate 379
  % control: 0%

## CCOc1cc(Oc2ccc(C(F)(F)F)cc2Cl)ccc1[N+](=O)[O-] [Oxyfluorfen, oxyfluorfen]
[1]
  Control %: 46.7%
[2]
  Control %: 45.0%
[3]
  Control %: 43.3%
[4]
  Control %: 35.0%

## C#CCN1C(=O)COc2cc(F)c(N3C(=O)C4=C(CCCC4)C3=O)cc21 [Flumioxazin, flumioxazin]
Table 3, 3 DAA, g ai/h: L-glufosinate 150, flumioxazin 30
  % control: 7.7%
Table 3, 7 DAA, g ai/h: L-glufosinate 150, flumioxazin 30
  % control: 31.7%
Table 3, 21 DAA, g ai/h: L-glufosinate 150, flumioxazin 30
  % control: 40%
Table 3, 28 DAA, g ai/h: L-glufosinate 150, flumioxazin 30
  % control: 40%
Table 3, 35 DAA, g ai/h: L-glufosinate 150, flumioxazin 30
  % control: 30%

## O=C(O)COc1ccc(Cl)cc1Cl [2,4-D]
Table 4, 7 DAA, g ai/h: L-glufosinate 150, 2,4-D 204
  % control: 41.7%
Table 4, 14 DAA, g ai/h: L-glufosinate 150, 2,4-D 204
  % control: 42.7%
Table 4, 21 DAA, g ai/h: L-glufosinate 150, 2,4-D 204
  % control: 50.7%
Table 4, 28 DAA, g ai/h: L-glufosinate 150, 2,4-D 204
  % control: 53.3%
Table 4, 35 DAA, g ai/h: L-glufosinate 150, 2,4-D 204
  % control: 48.3%

## O=C(O)COc1nc(Cl)c(Cl)cc1Cl [Triclopyr, triclopyr]
Table 5, 7 DAA, g ai/h: L-glufosinate 150, triclopyr 288
  % control: 50%
Table 5, 14 DAA, g ai/h: L-glufosinate 150, triclopyr 288
  % control: 79.3%
